{"source": "paper PMC7251641", "about": "(Cell, 2010)", "molecular_target": "INO80 (Saccharomyces cerevisiae, UniProt P53115)", "test": "real-time fluorescent phosphate-release ATPase assay", "assay_type": "biochemical", "settings": "0.1 nM INO80; with or without 15 nM nucleosomes or DNA; 23 °C", "data": [{"smiles": "Nc1ncnc2c1ncn2[C@@H]1O[C@H](COP(=O)(O)OP(=O)(O)OP(=O)(O)O)[C@@H](O)[C@H]1O", "note": "[ATP]", "values": [{"measurement": "KM", "result": "KM for the ATPase of SWR1, INO80, and SWI/SNF in the presence or absence"}]}]}
